Experimental data: patent US11806339B2, “Combination therapy of Axl inhibitor and EGFR tyrosine kinase inhibitor” (Daiichi Sankyo Company, Limited, priority 2017, dated 2023)
Structures can show the parent of a compound that is named as a salt.

Legend:
HCC827 cells = assay: In vivo effect of combined use of Compound A and osimertinib on subcutaneously transplanted HCC827 tumors (estimated tumor volume); set-up: species or system nude mouse;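 note: subcutaneous xenografts in female nude mice, tumor axes measured by caliper over time, volume as major axis × minor axis²/2, dosing from Day 1 five days weekly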
Description: (§1) 0.1 mL of the prepared cell suspension was subcutaneously transplanted to each nude mouse (female, 5 weeks old). […] The administration was started on the day (Day 1) following the grouping date and carried out five times a week (Saturday and Sunday were set to drug holidays). […] The major axis (mm) and minor axis (mm) of each tumor were measured over time using an electronic digital caliper. The estimated tumor volume was calculated according to the expression (1) given below, and plotted. Also, the body weight was measured over time using an automatic balance for small animals. The rate of change in body weight (Change in body weight (%)) was calculated according to the expression (2) given below. […] Estimated tumor volume (mm^3)=Mean estimated tumor volume of individuals per group (1) Estimated tumor volume of each individual=An×Bn^2/2
An: Major axis of the tumor at Day n
(§2) Bn: Minor axis of the tumor at Day n Change in body weight (%)=Mean rate of change in body weights of individuals per group (2) Rate of change in body weight of each individual=(1−BWn/BWs)×100

[1] = Change in body weight and general symptoms in HCC827 tumor-bearing mice
Description: as §1, §2
BWn: Body weight at Day n
BWs: Body weight at the initial day of administration

[2] = Day 0, Compound A 12.5 mg/kg, bid
[3] = Day 0, Compound A 25 mg/kg, bid
[4] = Day 0, Compound A 50 mg/kg, bid
[5] = Day 4, Compound A 12.5 mg/kg, bid
[6] = Day 4, Compound A 25 mg/kg, bid
[7] = Day 4, Compound A 50 mg/kg, bid
[8] = Day 7, Compound A 12.5 mg/kg, bid
[9] = Day 7, Compound A 25 mg/kg, bid
[10] = Day 7, Compound A 50 mg/kg, bid
[11] = Day 11, Compound A 12.5 mg/kg, bid
[12] = Day 11, Compound A 25 mg/kg, bid
[13] = Day 11, Compound A 50 mg/kg, bid
[14] = Day 14, Compound A 12.5 mg/kg, bid
[15] = Day 14, Compound A 25 mg/kg, bid
[16] = Day 14, Compound A 50 mg/kg, bid
[17] = Day 18, Compound A 12.5 mg/kg, bid
[18] = Day 18, Compound A 25 mg/kg, bid
[19] = Day 18, Compound A 50 mg/kg, bid
[20] = Day 21, Compound A 12.5 mg/kg, bid
[21] = Day 21, Compound A 25 mg/kg, bid
[22] = Day 21, Compound A 50 mg/kg, bid
[23] = Day 25, Compound A 12.5 mg/kg, bid
[24] = Day 25, Compound A 25 mg/kg, bid
[25] = Day 25, Compound A 50 mg/kg, bid
[26] = Day 28, Compound A 25 mg/kg, bid
[27] = Day 11, osimertinib 3 mg/kg, qd
[28] = Day 14, osimertinib 3 mg/kg, qd
[29] = Day 18, osimertinib 3 mg/kg, qd
[30] = Day 21, osimertinib 3 mg/kg, qd
[31] = Day 25, osimertinib 3 mg/kg, qd
[32] = Day 28, osimertinib 3 mg/kg, qd
[33] = Day 32, osimertinib 3 mg/kg, qd
[34] = Day 35, osimertinib 3 mg/kg, qd
[35] = Day 39, osimertinib 3 mg/kg, qd
[36] = Day 46, osimertinib 3 mg/kg, qd
[37] = Day 49, osimertinib 3 mg/kg, qd
[38] = Day 53, osimertinib 3 mg/kg, qd
[39] = Day 56, osimertinib 3 mg/kg, qd
[40] = Day 60, osimertinib 3 mg/kg, qd
[41] = Day 63, osimertinib 3 mg/kg, qd
[42] = Day 67, osimertinib 3 mg/kg, qd
[43] = Day 74, osimertinib 3 mg/kg, qd
[44] = Day 77, osimertinib 3 mg/kg, qd
[45] = Day 81, osimertinib 3 mg/kg, qd
[46] = Day 84, osimertinib 3 mg/kg, qd
[47] = Day 88, osimertinib 3 mg/kg, qd
[48] = Day 91, osimertinib 3 mg/kg, qd
[49] = Day 95, osimertinib 3 mg/kg, qd
[50] = Day 100, osimertinib 3 mg/kg, qd

COc1cc(-c2cnc(N)c(-c3ccc(NC(=O)c4cn(CC5CCOCC5)cc(-c5ccc(C)cn5)c4=O)cc3F)c2)ccc1OC[C@H]1COCCO1 [Compound A, N-[4-(2-amino-5-{4-[(2R)-1,4-dioxan-2-ylmethoxy]-3-methoxyphenyl}pyridin-3-yl)-3-fluorophenyl]-5-methyl-4′-oxo-1′-(tetrahydro-2H-pyran-4-ylmethyl)-1′,4′-dihydro-2,3′-bipyridine-5′-carboxamide sulfate hydrate]
Mean estimated tumor volume (HCC827 cells; [2]): 269.0 mm^3
Mean estimated tumor volume (HCC827 cells; [3]): 273.7 mm^3
Mean estimated tumor volume (HCC827 cells; [4]): 279.7 mm^3
Mean estimated tumor volume (HCC827 cells; [5]): 376.3 mm^3
Mean estimated tumor volume (HCC827 cells; [6]): 366.6 mm^3
Mean estimated tumor volume (HCC827 cells; [7]): 386.5 mm^3
Mean estimated tumor volume (HCC827 cells; [8]): 446.8 mm^3
Mean estimated tumor volume (HCC827 cells; [9]): 458.8 mm^3
Mean estimated tumor volume (HCC827 cells; [10]): 468.3 mm^3
Mean estimated tumor volume (HCC827 cells; [11]): 580.4 mm^3
Mean estimated tumor volume (HCC827 cells; [12]): 550.8 mm^3
Mean estimated tumor volume (HCC827 cells; [13]): 579.7 mm^3
Mean estimated tumor volume (HCC827 cells; [14]): 647.2 mm^3
Mean estimated tumor volume (HCC827 cells; [15]): 631.7 mm^3
Mean estimated tumor volume (HCC827 cells; [16]): 676.8 mm^3
Mean estimated tumor volume (HCC827 cells; [17]): 759.0 mm^3
Mean estimated tumor volume (HCC827 cells; [18]): 718.2 mm^3
Mean estimated tumor volume (HCC827 cells; [19]): 816.3 mm^3
Mean estimated tumor volume (HCC827 cells; [20]): 835.6 mm^3
Mean estimated tumor volume (HCC827 cells; [21]): 792.0 mm^3
Mean estimated tumor volume (HCC827 cells; [22]): 856.2 mm^3
Mean estimated tumor volume (HCC827 cells; [23]): 1013.6 mm^3
Mean estimated tumor volume (HCC827 cells; [24]): 939.4 mm^3
Mean estimated tumor volume (HCC827 cells; [25]): 1037.5 mm^3
Mean estimated tumor volume (HCC827 cells; [26]): 1097.1 mm^3
Mean change in body weight [1, 2]: 0.0%
Mean change in body weight [1, 3]: 0.0%
Mean change in body weight [1, 4]: 0.0%
Mean change in body weight [1, 5]: 1.3%
Mean change in body weight [1, 6]: 0.6%
Mean change in body weight [1, 7]: 0.9%
Mean change in body weight [1, 8]: 0.7%
Mean change in body weight [1, 9]: 1.8%
Mean change in body weight [1, 10]: 1.4%
Mean change in body weight [1, 11]: 1.2%
Mean change in body weight [1, 12]: 1.0%
Mean change in body weight [1, 13]: 2.9%
Mean change in body weight [1, 14]: 0.4%
Mean change in body weight [1, 15]: 0.0%
Mean change in body weight [1, 16]: 2.4%
Mean change in body weight [1, 17]: 3.6%
Mean change in body weight [1, 18]: 0.6%
Mean change in body weight [1, 19]: 3.6%
Mean change in body weight [1, 20]: 4.8%
Mean change in body weight [1, 21]: 3.1%
Mean change in body weight [1, 22]: 6.7%
Mean change in body weight [1, 23]: 4.4%
Mean change in body weight [1, 24]: 4.6%
Mean change in body weight [1, 25]: 5.1%
Mean change in body weight [1, 26]: 3.0%

C=CC(=O)Nc1cc(Nc2nccc(-c3cn(C)c4ccccc34)n2)c(OC)cc1N(C)CCN(C)C [osimertinib, N-(2-{[2-(dimethylamino)ethyl](methyl)amino}-4-methoxy-5-{[4-(1-methyl-1H-indol-3-yl)pyrimidin-2-yl]amino}phenyl)propen-2-amide]
Mean estimated tumor volume (HCC827 cells; Day 0, osimertinib 3 mg/kg, qd): 259.3 mm^3
Mean estimated tumor volume (HCC827 cells; Day 4, osimertinib 3 mg/kg, qd): 93.1 mm^3
Mean estimated tumor volume (HCC827 cells; Day 7, osimertinib 3 mg/kg, qd): 56.7 mm^3
Mean estimated tumor volume (HCC827 cells; [27]): 38.7 mm^3
Mean estimated tumor volume (HCC827 cells; [28]): 33.1 mm^3
Mean estimated tumor volume (HCC827 cells; [29]): 30.9 mm^3
Mean estimated tumor volume (HCC827 cells; [30]): 29.6 mm^3
Mean estimated tumor volume (HCC827 cells; [31]): 32.0 mm^3
Mean estimated tumor volume (HCC827 cells; [32]): 32.0 mm^3
Mean estimated tumor volume (HCC827 cells; [33]): 35.5 mm^3
Mean estimated tumor volume (HCC827 cells; [34]): 42.1 mm^3
Mean estimated tumor volume (HCC827 cells; [35]): 44.9 mm^3
Mean estimated tumor volume (HCC827 cells; [36]): 53.3 mm^3
Mean estimated tumor volume (HCC827 cells; [37]): 63.7 mm^3
Mean estimated tumor volume (HCC827 cells; [38]): 80.8 mm^3
Mean estimated tumor volume (HCC827 cells; [39]): 92.4 mm^3
Mean estimated tumor volume (HCC827 cells; [40]): 103.3 mm^3
Mean estimated tumor volume (HCC827 cells; [41]): 134.1 mm^3
Mean estimated tumor volume (HCC827 cells; [42]): 146.2 mm^3
Mean estimated tumor volume (HCC827 cells; [43]): 182.1 mm^3
Mean estimated tumor volume (HCC827 cells; [44]): 220.1 mm^3
Mean estimated tumor volume (HCC827 cells; [45]): 285.7 mm^3
Mean estimated tumor volume (HCC827 cells; [46]): 341.2 mm^3
Mean estimated tumor volume (HCC827 cells; [47]): 404.1 mm^3
Mean estimated tumor volume (HCC827 cells; [48]): 509.3 mm^3
Mean estimated tumor volume (HCC827 cells; [49]): 602.4 mm^3
Mean estimated tumor volume (HCC827 cells; [50]): 727.5 mm^3
Day at which the tumor became bigger than its size at the start of administration (acquired resistance) (HCC827 cells; mouse, in vivo, 3 mg/kg): 81 days
Effect on tumor immediately after administration (HCC827 cells; osimertinib administered alone, 3 mg/kg qd): tumor regression effect
Mean change in body weight ([1]; Day 0, osimertinib 3 mg/kg, qd): 0.0%
Mean change in body weight ([1]; Day 4, osimertinib 3 mg/kg, qd): 0.1%
Mean change in body weight ([1]; Day 7, osimertinib 3 mg/kg, qd): 1.0%
Mean change in body weight [1, 27]: 0.3%
Mean change in body weight [1, 28]: 1.1%
Mean change in body weight [1, 29]: 0.9%
Mean change in body weight [1, 30]: 2.7%
Mean change in body weight [1, 31]: 2.6%
Mean change in body weight [1, 32]: 1.1%
Mean change in body weight [1, 33]: 2.0%
Mean change in body weight [1, 34]: 3.1%
Mean change in body weight [1, 35]: 4.0%
Mean change in body weight ([1]; Day 42, osimertinib 3 mg/kg, qd): 3.2%
Mean change in body weight [1, 36]: 4.5%
Mean change in body weight [1, 37]: 5.0%
Mean change in body weight [1, 38]: 5.1%
Mean change in body weight [1, 39]: 5.3%
Mean change in body weight [1, 40]: 5.4%
Mean change in body weight [1, 41]: 5.7%
Mean change in body weight [1, 42]: 6.4%
Mean change in body weight ([1]; Day 70, osimertinib 3 mg/kg, qd): 5.7%
Mean change in body weight [1, 43]: 7.4%
Mean change in body weight [1, 44]: 6.6%
Mean change in body weight [1, 45]: 8.9%
Mean change in body weight [1, 46]: 8.0%
Mean change in body weight [1, 47]: 8.8%
Mean change in body weight [1, 48]: 9.6%
Mean change in body weight [1, 49]: 11.7%
Mean change in body weight ([1]; Day 98, osimertinib 3 mg/kg, qd): 11.2%
Mean change in body weight [1, 50]: 11.9%
